What was measured:
[1] = molecular target: T1, Human recombinant p38α (Homo sapiens, UniProt Q16539); assay: In vitro enzyme assay, p38α kinase inhibition; type: biochemical; details: activated p38α, Myelin Basic Protein substrate, 33P ATP
T1 construct: c-myc (N); 6His (N); made in house; host or cells: E. coli (PET vectors)
Method: The ability test compounds to inhibit the enzyme p38 kinase was assessed. Activity of the test compound against each of the p38α and […] isoforms of the enzyme was determined.
Human recombinant MKK6 (GenBank Accession Number G1209672) was isolated from Image clone 45578 (Genomics, 1996, 33, 151) and utilised to produce protein in the form of a GST fusion protein in a pGEX vector using analogous procedures to those disclosed by J. Han et al., Journal of Biological Chemistry, 1996, 271, 2886-2891. p38α (GenBank Accession Number G529039) and p38β (GenBank Accession Number G1469305) were isolated by PCR amplification of human lymphoblastoid cDNA (GenBank Accession Number GM1416) and human foetal brain cDNA [synthesised from mRNA (Clontech, catalogue no. 6525-1) using a Gibco superscript cDNA synthesis kit] respectively using oligonucleotides designed for the 5′ and 3′ ends of the human p38α and p38β genes using analogous procedures to those described by J. Han et al., Biochimica et Biophysica Acta, 1995, 1265, 224-227 and Y. Jiang et al., Journal of Biological Chemistry, 1996, 271, 17920-17926.
Both p38 protein isoforms were expressed in E. coli in PET vectors. Human recombinant p38α and p38β isoforms were produced as 5′ c-myc, 6His tagged proteins. Both MKK6 and the p38 proteins were purified using standard protocols: the GST MKK6 was purified using a glutathione sepharose column and the p38 proteins were purified using nickel chelate columns.
The p38 enzymes were activated prior to use by incubation with MKK6 for 3 hours at 30° C. The unactivated E. coli-expressed MKK6 retained sufficient activity to fully activate both isoforms of p38. For p38α, the activation incubate comprised p38α (50 μl of 10 mg/ml), MKK6 (5 μl of 12 mg/ml), ‘Kinase buffer’ [550 μl; pH 7.4 buffer comprising Tris HCl (50 mM), EGTA (0.1 mM), sodium orthovanadate (0.1 mM) and (1-mercaptoethanol (0.1%)], Mg [75 μl of 100 mM Mg(OCOCH3)2] and ATP (75 μl of 1 mM). The activation incubate for p38β was similar to the above except containing […] enzyme (82 μl at 3.05 mg/ml) and 518 μl “Kinase buffer”. p38α and p38β activation incubates were either used fresh or aliquoted and stored at −80° C.
The test compound was solubilised in DMSO (10 mM) and 1:3 serial dilutions in DMSO carried out in polypropylene plates (Costar 3365). Compound dilutions were then diluted 1:10 in “Kinase buffer” and 10 μl transferred to a microtiter assay plate (Costar 3596). Control wells contained 10 μl (1:10 dilution in kinase buffer) DMSO. ‘Kinase Assay Mix’ [[…]; comprising Myelin Basic Protein (Sigma M-1891; 0.5 ml of a 6.66 mg/ml solution in “Kinase buffer”), activated p38α enzyme (3.8 μl) and ‘Kinase Buffer’ (2.55 ml)] was then added. Control wells on each plate either contained the above “Kinase Assay Mix” (n=6 replicates) or contained “Kinase Assay Mix” in which the activated p38 enzyme was replaced by Kinase buffer (n=6 replicates). ‘Labelled ATP’ was then added to all wells […]; comprising 50 μM ATP, 5 μCi ^33P ATP (Amersham International cat. no. AH9968) and 50 mM Mg(OCOCH3)2]. For p38β, 23 μl activated p38β enzyme and “Kinase buffer” (2.53 ml) were included in the “Kinase Assay Mix”. The final concentration of test compound was 2.4 μM-0.001 μM (n=2 replicates). Microtiter plates were incubated at ambient temperature (with gentle agitation) for 60 minutes and the reaction stopped by addition of 20% trichloroacetic acid (TCA) (50 μl). The precipitate protein was captured onto filter plates (PerkinElmer 6005174) using a Packard Filtermate harvester (2% TCA wash) which was then dried overnight and 25 μl MICROSCINT O (Packard O6013611) added to each well. Plates were counted on a Top Count scintillation counter. Dose response curves were generated using an in house automated data analysis package and an Origin curve fitting package.

[2] = tested on: TNFα production in human whole blood; assay: Human whole blood assay, inhibition of LPS-stimulated TNFα production; type: cell-based; details: LPS 10 μg/ml, 6 hours, TNFα by ELISA
Method: [formula] (ii) Human Whole Blood
The ability of a test compound to inhibit TNFα production was also assessed in a human whole blood assay. Human whole blood secretes TNFα when stimulated with LPS.
Heparinised (10 units/ml) human blood was obtained from volunteers. 160 μl whole blood was added to 96 well round-bottom plates (Corning 3799). Compounds were solubilised in DMSO at a concentration of 10 mM, diluted 1:100 in “culture medium” [RPMI 1640 medium (Sigma) containing 50 units/ml penicillin, 50 μg/ml streptomycin and 2 mM glutamine] and subsequently serial dilutions were made in culture medium containing 1% DMSO. 20 μl of each test concentration was added to appropriate wells (triplicate cultures)(final concentration dose range of 10 μM-0.0001 μM). 20 μl of RPMI culture medium containing 1% DMSO was added to control wells.
Plates were incubated for 30 minutes at 37° C. (humidified incubator), prior to addition of 20 μl LPS (final concentration 10 μg/ml). Culture medium was added to control wells. Six “LPS alone” and six “medium alone” controls were included on each plate. A known TNFα synthesis/secretion inhibitor was included in each test. Plates were incubated for 6 hours at 37° C. (humidified incubator). Plates were centrifuged (2000 rpm for 10 minutes) and 80 μl plasma removed and stored at −80° C. (Corning 3799 plates). TNFα levels were measured by ELISA using paired antibodies from R&D Systems (catalogue nos. MAB610 and BAF210).

T1 sequence (Q16539 whole entry): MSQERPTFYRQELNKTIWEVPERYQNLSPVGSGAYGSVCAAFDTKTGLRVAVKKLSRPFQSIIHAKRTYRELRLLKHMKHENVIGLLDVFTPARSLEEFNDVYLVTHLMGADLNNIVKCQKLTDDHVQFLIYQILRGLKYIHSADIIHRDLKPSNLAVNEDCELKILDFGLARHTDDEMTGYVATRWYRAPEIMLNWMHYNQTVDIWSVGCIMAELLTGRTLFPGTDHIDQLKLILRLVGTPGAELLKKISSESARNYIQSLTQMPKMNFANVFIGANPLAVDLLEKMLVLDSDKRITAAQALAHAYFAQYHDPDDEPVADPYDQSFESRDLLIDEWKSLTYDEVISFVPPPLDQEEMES

Row | SMILES | IC50 [1] [nM] | IC50 [2] [nM]
1 | Cc1ccc(C(=O)NC2CC2)cc1NC(=O)c1ccc(OCc2cn3ccccc3n2)cc1 [5[e], N-cyclopropyl-3-{[4-(imidazo[1,2-a]pyridin-2-ylmethoxy)benzoyl]amino}-4-methylbenzamide] | 10 | 520
2 | Cc1ccc(C(=O)NC2CC2)cc1NC(=O)c1ccc(OCc2cscn2)c(F)c1 [5[ac], N-{5-[(cyclopropylamino)carbonyl]-2-methylphenyl}-3-fluoro-4-(1,3-thiazol-4-ylmethoxy)benzamide] | 7 | 70
3 | COc1ccc(C(=O)Nc2cc(C(=O)NC3CCC3)ccc2C)cc1OC [Comparator Compound X, N-cyclobutyl-3-(3,4-dimethoxybenzamido)-4-methylbenzamide, reference compound] | 4400 | > 10000
4 | Cc1ccc(C(=O)NC2CC2)cc1NC(=O)c1ccc(OCc2ncccc2C)cc1 [Example 8, N-cyclopropyl-4-methyl-3-({4-[(3-methylpyridin-2-yl)methoxy]benzoyl}amino)benzamide] | 59 | 1800
5 | Cc1ccc(C(=O)NC2CC2)cc1NC(=O)c1cnc(OCc2nccs2)nc1 [23[a], N-{5-[(cyclopropylamino)carbonyl]-2-methylphenyl}-2-(1,3-thiazol-2-ylmethoxy)pyrimidine-5-carboxamide] | 170 | 1700
6 | Cc1nc(COc2ccc(C(=O)Nc3cc(C(=O)NC4CC4)ccc3C)cc2F)cs1 [5[z], N-{5-[(cyclopropylamino)carbonyl]-2-methylphenyl}-3-fluoro-4-[(2-methyl-1,3-thiazol-4-yl)methoxy]benzamide] | 7 | 300
7 | Cc1ccc(C(=O)NC2CC2)cc1NC(=O)c1ccc(OCc2ccccn2)c(F)c1 [5[y], N-{5-[(cyclopropylamino)carbonyl]-2-methylphenyl}-3-fluoro-4-(pyridin-2-ylmethoxy)benzamide] | 6 | 140

Source: patent publication US8742124B2, “Amide derivatives bearing a cyclopropylaminoacarbonyl substituent useful as cytokine inhibitors” (AstraZeneca AB, priority 2003, dated 2014)
